For data set [1], the system named is HCC-1954 PIK3CA^H1047R breast cancer CDX. Description: HCC-1954 breast cancer xenograft. Type of data set: in vivo, mouse. To be noted: two values. The method, then: The antitumor activity of RMC-5552 as a single agent against tumors predicted to be dependent on the mTOR pathway and/or bearing specific PI3K/mTOR pathway-activating mutations (i.e., PIK3CA^mut, phosphatase and tensin homolog [PTEN^LOF], or co-mutation of both and tuberous sclerosis complex [TSC^LOF]) was evaluated in selected CDX and/or PDX models
Table 1. RMC-5552 was administered IP once weekly at 1, 3, 10, and 30 mg/kg. In the breast cancer MCF7 PIK3CA^[…] model, a higher dose of 50 mg/kg once weekly and an alternate dose regimen of 30 mg/kg every 10 days were also evaluated.

In a further data set the test system is mucositis/stomatitis. Description: Mouthwash prophylaxis of mucositis in patients on RMC-5552. In kind it is in vivo, human. Particulars: RMC-5552 8 to 12 mg IV weekly; without TM N=20, with TM N=7. The method, then:
Table 9 presents data from all patients (N=27) treated either with dexamethasone mouthwash alone, or dexamethasone mouthwash plus tacrolimus mouthwash at 8 mg (N=16), 10 mg (N=8), and 12 mg (N=3) IV QW. Median time on treatment (min, max) was 2.6 months for patients treated at 8 mg IV QW with dexamethasone mouthwash alone (N=13), 1.2 months for patients treated at 8 mg IV QW with dexamethasone mouthwash plus tacrolimus mouthwash (N=3), 0.9 months for patients treated at 10 mg IV QW with dexamethasone mouthwash alone (N=5), 2.0 months for patients treated at 10 mg IV QW with dexamethasone mouthwash plus tacrolimus mouthwash (N=3), 9.1 months for patients treated at 12 mg IV QW with dexamethasone mouthwash alone (N=2), and 0.4 months for patients treated at 12 mg IV QW with dexamethasone mouthwash plus tacrolimus mouthwash (N=1). […] Among all dose levels, the frequency of Grade 3 or worse events, frequency and severity of mucositis, and frequency of AEs leading to dose modification were lower in those patients treated with tacrolimus mouthwash.
Subjects received dexamethasone alone or dexamethasone plus tacrolimus mouthwash(es). […] At baseline (C1D1 predose), subjects rinse with the mouthwash(es) once at least 15 minutes prior to the first dose of study intervention. […]

Where “and” joins values, the source holds several entries; their conditions need not be identical. Equal entries are not always repeated.

For orientation: TGI means the reduction of tumour growth relative to the control group.

`CO[C@H]1C[C@@H]2CC[C@@H](C)[C@@](O)(O2)C(=O)C(=O)N2CCCC[C@H]2C(=O)O[C@H]([C@H](C)C[C@@H]2CC[C@@H](OC(=O)NCCOCCOCCOCCOCCOCCOCCOCCOCCC(=O)N3CCc4cc(Cn5nc(-c6ccc7oc(N)nc7c6)c6c(N)ncnc65)ccc4C3)[C@H](OC)C2)C[C@@H](O)[C@H](C)/C=C(\C)[C@@H](O)[C@@H](OC)C(=O)[C@H](C)C[C@H](C)/C=C/C=C/C=C/1C` [RMC-5552]: the inhibition of tumour growth (TGI) in data set [1] (1 mg/kg IP QW) is 79% and 81%; in data set [1] (3 mg/kg IP QW) it was 94% and 96%; in data set [1] (10 mg/kg IP QW) it was 95% and 92%. The “rate of grade 3 mucositis/stomatitis” value with mucositis/stomatitis came out at 15%. In the data set on mucositis/stomatitis, the rate of mucositis/stomatitis was found to be 75%.
